# Data: PubChem BioAssay AID624285 (Broad Institute, 2012)
# The source made the active and inactive calls.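 Rule for the calls: active = signal-decreasing dose-response curve whose fitted half-maximal concentration is at or below twice the highest valid tested dose; inconclusive = flat fit at 30 to 70% signal loss, or poor fit; inactive = the rest.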
# Test system: NIH3T3/HeLa viability, CellTiter-Glo ATP luminescence, 24 h
# Experiment: cell viability loss after compound exposure – 24 h, luminescence, cherry-picked samples, cytotoxicity control for PDI inhibitor project, dose response (AID 624285)
row,SMILES,AC50
1,Cn1cnnc1Sc1ccc(/C=C/C(=O)c2ccc(O)cc2)cc1[N+](=O)[O-],12.3 µM
2,C[C@H]1CN([C@@H](C)CO)C(=O)Cc2cc(NC(=O)Nc3ccccc3)ccc2O[C@@H]1CN(C)Cc1ccccc1,37.9 µM
3,COc1cc2cc(C(=O)N3CC(COS(C)(=O)=O)c4ccc(O)cc43)[nH]c2c(OC)c1OC (stereo not given),0.0396 µM
4,COc1ccc(/C=C/C(=O)c2cc(F)ccc2OC(=O)c2ccccc2OC)cc1OC,23.5 µM
5,CCOC(=O)c1c(CN(C)C)n(-c2ccccc2)c2cc(Br)c(O)cc12,> 70 µM (inactive)
6,Cc1ccc(N(Cc2ccccc2)C(=O)c2cccc(S(=O)(=O)N3CC(C)OC(C)C3)c2)cc1 (stereo not given),> 70 µM (inactive)
7,CCOC(=O)C1(CCOc2ccccc2)CCN(Cc2ccc(O)c(Cl)c2)CC1,> 70 µM (inactive)
8,COc1ccc(/C=C2\CN(Cc3ccccc3)C/C(=C\c3ccc(OC)c(O)c3)C2=O)cc1O,6.12 µM
9,CCOC(=O)C1(CCOc2ccccc2)CCN(Cc2cccc(O)c2)CC1,> 70 µM (inactive)
10,CN(c1ccccc1)S(=O)(=O)c1cc(C(=O)N2CCN(c3ncccn3)CC2)ccc1Cl,> 70 µM (inactive)
11,CCCN(CCC)S(=O)(=O)c1ccc(C(=O)Nc2nnc(COC)o2)cc1,> 70 µM (inactive)
12,COc1ccc(C(=O)c2c(C)c3cc(C)ccc3n2CC(O)CN2CCOCC2)cc1 (stereo not given),> 70 µM (inactive)
13,CCOC(=O)Oc1c(OC)cc(C(=O)O[C@@H]2C[C@@H]3CN4CCc5c([nH]c6cc(OC)ccc56)[C@H]4C[C@@H]3[C@H](C(=O)OC)[C@H]2OC)cc1OC,27.3 µM
14,CS(=O)(=O)c1ccc(C(=O)OCC(=O)N2CCN(CCC3CCCCC3)CC2)cc1[N+](=O)[O-],3.32 µM
15,COC1/C=C/C=C(\C)Cc2cc(O)c(Cl)c(c2)N(C)C(=O)CC(OC(=O)C(C)C)C2(C)OC2C(C)C2CC1(O)NC(=O)O2 (stereo not given),> 70 µM (inactive)
16,CCOC(=O)c1c(CN(C)C)n(-c2ccc(C)cc2)c2cc(Br)c(O)cc12,> 70 µM (inactive)
17,CN(C)CCCN(C(=O)c1ccc(S(=O)(=O)N2CCCc3ccccc32)cc1)c1nc2ccc(F)cc2s1,18.2 µM
18,CN1CCN(CCOC2c3ccccc3CSc3ccc(Cl)cc32)CC1 (stereo not given),30.5 µM
19,O=C(Nc1nccs1)c1ccc(-c2ccccc2[N+](=O)[O-])o1,> 70 µM (inactive)
20,C[C@]12CC[C@H]3C(=CCc4cc(O)ccc43)[C@@H]1CCC2=O,> 70 µM (inactive)
21,CCOc1cc(N2CCOCC2)c(OCC)cc1NC(=O)COC(=O)[C@H](Cc1c[nH]c2ccccc12)NC(C)=O,> 70 µM (inactive)
22,CCc1cc(OCCCCNCc2ccccc2)ccc1Cl,21.5 µM

row,SMILES,AC50
1,C[C@@H]1CN([C@H](C)CO)C(=O)c2cccc(NS(C)(=O)=O)c2O[C@@H]1CN(C)Cc1ccc(Oc2ccccc2)cc1,> 70 µM (inactive)
2,CC(=O)OC1CCC2C3CCC4=C(CC(F)C(=O)C4)C3CCC12C (stereo not given),> 70 µM (inactive)
3,COc1cccc2c1C(=O)c1c(O)c3c(c(O)c1C2=O)CC(O)(C(C)=NO)CC3OC1CC(N)C(O)C(C)O1 (stereo not given),5.56 µM
4,CN1CCN(Cc2nc3ccccc3c(=O)n2Cc2nc(-c3ccc4ccccc4c3)cs2)CC1,7.27 µM
5,CCN1C[C@]2(COC(=O)c3ccccc3N)CC[C@H](OC)C34[C@@H]5C[C@H]6[C@H](OC)[C@@H]5[C@](O)(C[C@@H]6OC)[C@@](O)([C@H]13)[C@@H](OC)[C@@H]42,> 70 µM (inactive)
6,COc1ccc(Oc2ccc(/C=C/C(=O)c3ccc(O)cc3)cc2[N+](=O)[O-])cc1,12.4 µM
7,NNC(=O)c1cc(-c2ccc(O)cc2)nc2ccc(Br)cc12,> 70 µM (inactive)
8,C[C@H]1CN([C@@H](C)CO)C(=O)c2cc(NC(=O)Cc3cn(C)c4ccccc34)ccc2O[C@@H]1CN(C)S(=O)(=O)c1ccc(F)cc1,> 70 µM (inactive)
9,C[C@H]1CN([C@@H](C)CO)C(=O)Cc2cc(NC(=O)Nc3ccccc3)ccc2O[C@H]1CN(C)Cc1ccccc1,> 70 µM (inactive)
10,C=CC[C@H](CC(=O)N(CCO)Cc1ccccc1)C(=O)N[C@H](COC(=O)[C@@H](CC=C)Cc1ccc(F)cc1)Cc1c[nH]c2ccccc12,30.8 µM
11,CC[C@]12c3[nH]c4cc(-c5ccco5)ccc4c3CCN1C(=O)[C@@H](CC(=O)NCc1ccc(OC)c(OC)c1)C[C@@H]2C(=O)N1CCN(C(=O)c2ccco2)CC1,> 70 µM (inactive)
12,CC1(c2ccc3ccccc3c2)NC(=O)N(CC(=O)Nc2cccc(S(=O)(=O)N3CCOCC3)c2)C1=O (stereo not given),> 70 µM (inactive)
13,CC(C)Sc1nnc([C@H](Cc2c[nH]c3ccccc23)NC(=O)OC(C)(C)C)o1,> 70 µM (inactive)
14,CCOC(=O)C1=C(c2ccccc2)N=c2s/c(=C\c3cccc(O)c3)c(=O)n2C1c1cccs1 (stereo not given),23 µM
15,O=C(CCS(=O)(=O)c1ccccc1)N(CCCN1CCOCC1)c1nc2ccccc2s1,14.2 µM
16,COc1ccc(C[C@@H]2OC3(C=CC(=O)C=C3)O[C@H]2Cc2ccc(OC)cc2)cc1,1.69 µM
17,CC[C@]12c3[nH]c4cc(-c5ccco5)ccc4c3CCN1C(=O)[C@@H](CC(=O)NCC13CC4CC(CC(C4)C1)C3)C[C@@H]2C(=O)N1CCN(C(=O)c2ccco2)CC1,> 70 µM (inactive)
18,CC12CCC3c4ccc(O)cc4CCC3C1CCC2=O (stereo not given),> 70 µM (inactive)
19,C[C@@H]1CN([C@@H](C)CO)C(=O)Cc2cc(NC(=O)Nc3ccccc3)ccc2O[C@@H]1CN(C)Cc1ccccc1,> 60 µM (inactive)
20,C[C@@H]1CN([C@@H](C)CO)C(=O)c2cc(NC(=O)Cc3cn(C)c4ccccc34)ccc2O[C@@H]1CN(C)S(=O)(=O)c1ccc(F)cc1,> 70 µM (inactive)
21,Cc1ccc2c(c1)Oc1ccc(NC(=O)CCl)cc1C(=O)N2,8.51 µM
22,CCN1CCN(Cc2ccc(NC(=O)c3cc(NC(=O)c4cc(-c5ccc(OC)cc5)n[nH]4)cc(OC)c3)cc2C(F)(F)F)CC1,6.45 µM

row,SMILES,AC50
1,O=C(COC(=O)c1ccccc1NC(=O)c1ccco1)NCCC1=CCCCC1,> 70 µM (inactive)
2,COc1c(Br)cc(C(N)=O)cc1OCc1ccccc1,> 70 µM (inactive)
3,CCOC(=O)c1c(CN2CCN(C)CC2)n(-c2ccccc2)c2cc(Br)c(O)cc12,23.9 µM
4,CCOC(=O)c1c(CNCCN(CC)CC)n(C)c2cc(Br)c(OC)cc12,> 70 µM (inactive)
5,COc1ccc(C2c3ccc(O)cc3Oc3ncn4nc(-c5cccnc5)nc4c32)cc1OC (stereo not given),30.6 µM
6,Cc1c(O)ccc2c(CN3CCN(C/C=C/c4ccccc4)CC3)cc(=O)oc12,> 70 µM (inactive)
7,CC(=O)Oc1ccccc1C(=O)C=Cc1cccc([N+](=O)[O-])c1,5.89 µM
8,Cc1cccn2c(CN(C)C3CCCc4ccccc43)c(C(=O)N3CCOCC3)nc12 (stereo not given),> 70 µM (inactive)
9,CCOc1cc(/C=C/C(=O)c2ccc(O)cc2)ccc1OCC(=O)N(C)C,39.4 µM
10,COc1ccc(/C=C2\Sc3ccc(C(=O)NCCCN4CCCC4)cc3N(C)C2=O)cc1OC,35.2 µM
11,COc1ccc(C2c3ccc(O)cc3Oc3ncn(CCN4CCOCC4)c(=N)c32)cc1OC (stereo not given),> 70 µM (inactive)
12,CC(=O)c1cc(-c2ccccc2)n(CC(=O)Nc2cccc(C)c2)c1C,> 70 µM (inactive)
13,C[C@]12CC[C@@H]3c4ccc(O)cc4C(=O)C[C@H]3[C@@H]1CC[C@@H]2O,> 70 µM (inactive)
14,Cc1cc(C(=O)Cn2nnc3ccccc3c2=O)c(C)n1-c1ccccc1F,> 70 µM (inactive)
15,CCOc1ccc(CCN2C(=O)C(=O)N([C@@H](CC(C)C)CN3CCC[C@@H]3CN3C(=O)C(=O)NC[C@@H]3Cc3ccccc3)C[C@@H]2Cc2ccc(O)cc2)cc1,38.1 µM
16,CCOC(=O)c1c(CN2CCOCC2)n(-c2ccccc2)c2cc(Br)c(O)cc12,> 70 µM (inactive)
17,O=S(=O)(Nc1ccc(C(O)(C(F)(F)F)C(F)(F)F)cc1)c1ccc(Cl)c2nonc12,9.47 µM
18,Oc1cccc(-c2nc3c4c(ncn3n2)-c2ccccc2CC42CCCC2)c1,14.3 µM
19,O=C(NCCc1c[nH]c2ccccc12)/C(=C\c1cccnc1)NC(=O)c1ccccc1Br,> 70 µM (inactive)
20,NC(Cc1ccc(C(F)(F)F)cc1)c1csc(Nc2ccc(C(=O)NCCCO)cn2)n1 (stereo not given),35.1 µM
21,COc1cc(C2C(C#N)=C(N)Oc3cc(O)ccc32)cc(OC)c1OC (stereo not given),> 70 µM (inactive)
22,CCOC(=O)c1c(CN2CCOCC2)n(-c2ccccc2)c2ccc(O)cc12,> 70 µM (inactive)

row,SMILES,AC50
1,Cc1ccc(C)c(N2CCN(S(=O)(=O)c3ccc4c(c3)OCCO4)CC2)c1,> 70 µM (inactive)
2,COc1ccc(OCCN2CCC(C(=O)NC(c3ccsc3)c3ccccc3C)CC2)cc1 (stereo not given),> 70 µM (inactive)
3,O=C(c1ccc(S(=O)(=O)N2CCCCC2)cc1)N1CCN(Cc2ccc3c(c2)OCO3)CC1,> 70 µM (inactive)
4,CCOC(=O)c1c(CN2CCN(C)CC2)n(C)c2cc(Br)c(OC)cc12,22.2 µM
5,COc1ccc(-c2nnc3ccc(SCC(=O)Nc4nc5ccccc5s4)nn23)cc1OC,> 70 µM (inactive)
6,O=C(/C=C/c1ccc(N2CCCCC2)c([N+](=O)[O-])c1)c1ccc(O)cc1,12 µM
7,Cc1nnc(SCc2cc(=O)oc3cc(O)ccc23)n1Cc1ccccc1,> 70 µM (inactive)
8,O=C(Nc1nc2ccccc2s1)c1cccc(S(=O)(=O)N2CCc3ccccc32)c1,> 70 µM (inactive)
9,Cc1ccc(NC(=O)CSC(C)C(=O)OCc2cc(=O)oc3cc(O)ccc23)cc1 (stereo not given),> 70 µM (inactive)
10,COCCN(CC(=O)Nc1ccccc1C(F)(F)F)C(=O)/C=C/c1cc(Cl)c2c(c1)OCCO2,> 70 µM (inactive)
11,O=C(CCc1nc(-c2ccccc2F)no1)Nc1ccc(Oc2ccccc2)cc1,> 70 µM (inactive)
12,Nc1ccc(C(=O)NN2C(=O)[C@H](Cl)C2c2ccc(Cl)cc2)cc1 (stereo not given in full),6.04 µM
13,O=C(CCC1CCCCC1)NCCN1C2=NC[C@H](Cc3ccc(O)cc3)N2C[C@H]1Cc1ccc(O)cc1,> 70 µM (inactive)
14,Cc1noc(C)c1S(=O)(=O)Nc1ccc2c(c1)CC(=O)N([C@@H](C)CO)C[C@@H](C)[C@@H](CN(C)S(=O)(=O)c1ccc(F)cc1)O2,> 70 µM (inactive)
15,CCOC(=O)C1(CCOc2ccccc2)CCN(Cc2ccc(O)cc2)CC1,> 70 µM (inactive)
16,CN(C)CCCN(C(=O)c1ccc(S(=O)(=O)N2CCc3ccccc32)cc1)c1nc2c(Cl)cccc2s1,16.5 µM
17,COC(=O)c1ccc(NC(=S)NCCc2cccc(C)c2)cc1,> 70 µM (inactive)
18,Cc1cc(O)cc2c1C1CCC3(C)C(=O)CCC3C1C=C2 (stereo not given),> 70 µM (inactive)
19,CC(=O)Oc1ccc(C2OC(=O)c3ccccc3N2C(C)=O)cc1 (stereo not given),> 70 µM (inactive)
